Measurements published in patent US20050282755A1, “Compositions having antimicrobial activity and uses thereof” (priority 2004, published 2005).
≈ marks a conversion by molar mass, not a printed value. Starred links: 1 amine or outer side, 2 acyl side, 3 side chain; linkers in the order of their positions; H or OH if unused. Non-standard residues stand in square brackets, D forms with d. Residues, ends and D or L forms follow the SMILES beside them. *: point of attachment. Ethylenediamine = C(CN[*:2])N[*:1]; Lauroyl = CCCCCCCCCCCC(=O)*; Decanoyl = CCCCCCCCCC(=O)*; Octanoyl = CCCCCCCC(=O)*

Columns and labels:
Assay type in all cases: cell-based
[1] = system: Staphylococcus epidermidis ATCC 12228; assay: MIC, NCCLS M7-A6 broth microdilution (Table 9, no superscript); conditions: ATCC 12228
Procedure, shortened: (§1)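 Broth microdilution in cation-adjusted Mueller Hinton broth, log-phase inoculum giving 5×10^5 to 1×10^6 CFU/milliliter per well. Overnight incubation at 37° C. MIC taken as lowest peptide concentration with no visible turbidity versus a no-peptide control.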

[2] = system: Pseudomonas aeruginosa ATCC 27853; assay: as above; conditions: ATCC 27853
Procedure, shortened: as §1

Salmonella dublin (Lane) = assay: as above
Procedure, shortened: as §1

[3] = system: Escherichia coli ATCC 25922; assay: as above; conditions: ATCC 25922
Procedure, shortened: as §1

[4] = system: Candida albicans ATCC 18804; assay: MIC in yeasts, NCCLS M27-A2 broth microdilution, RPMI 1640 (Table 9, letter e); conditions: ATCC 18804
Procedure, shortened: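 Broth microdilution per NCCLS M27-A2 in RPMI 1640 with glutamine and phenol red, final inoculum 0.5×10^3–2.5×10^3 CFU/milliliter. Incubated 24 to 48 hours at 37° C; MIC is the lowest peptide concentration with no visible growth.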

[5] = system: Staphylococcus aureus ATCC 29213; assay: MIC, NCCLS M7-A6 broth microdilution, cation-adjusted Mueller Hinton broth (Table 9, no superscript); conditions: ATCC 29213
Procedure, shortened: as §1

[6] = system: Propionibacterium acnes ATCC 6919; assay: MIC, agar dilution method NCCLS M11-A6, Brucella agar, anaerobic (Table 9, superscript c); conditions: ATCC 6919
Procedure, shortened: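 Agar dilution per NCCLS M11-A6 on Brucella agar; final inoculum 1.5×10^8 CFU/milliliter applied to plates, incubated 48-96 hours at 37° C. under anaerobic (GasPak) conditions. MIC = lowest peptide concentration with no colony growth.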

SMILES | MIC S. epidermidis [1] [µg/mL] | MIC P. aeruginosa [2] [µg/mL] | MIC S. dublin (Salmonella dublin (Lane)) [µg/mL] | MIC E. coli [3] [µg/mL] | MIC C. albicans [4] [e ug/mL] | MIC S. aureus [5] [µg/mL] | MIC P. acnes [6] [c ug/mL]
CCCCCCCCCCCC(=O)NCCNC(=O)[C@H](CCCNC(=N)N)NC(=O)[C@H](CCSC)NC(=O)[C@H](Cc1ccccc1)NC(=O)[C@H](CC(N)=O)NC(=O)[C@H](CCCNC(=N)N)NC(=O)[C@H](C)NC(=O)[C@@H](NC(=O)[C@H](CC(=O)O)NC(=O)[C@H](CCCNC(=N)N)NC(=O)[C@H](Cc1c[nH]c2ccccc12)NC(=O)[C@H](CCCNC(=N)N)NC(=O)[C@H](CO)NC(=O)[C@@H](N)CCCNC(=N)N)C(C)C [Peptide 176, H2N-RSRWRDVARNFMR-Ethylamidolauryl] (H-RSRWRDVARNFMR-{Ethylenediamine-Lauroyl}; C-terminus assumed) | 1 (≈ 0.506 µM) | 32 (≈ 16.2 µM) | 16 (≈ 8.1 µM) | 8 (≈ 4.05 µM) | 4 | 8 (≈ 4.05 µM) | 64
CCCCCCCCCC(=O)NCCCC[C@H](NC(=O)[C@H](CCCNC(=N)N)NC(=O)[C@H](CC(C)C)NC(=O)[C@H](Cc1ccccc1)NC(=O)[C@H](CC(N)=O)NC(=O)[C@H](CCCNC(=N)N)NC(=O)[C@H](C)NC(=O)[C@@H](NC(=O)[C@H](CC(=O)O)NC(=O)[C@H](CCCNC(=N)N)NC(=O)[C@H](Cc1c[nH]c2ccccc12)NC(=O)[C@H](CCCNC(=N)N)NC(=O)[C@H](CO)NC(=O)[C@@H](N)CCCNC(=N)N)C(C)C)C(N)=O [Peptide 180, H2N-RSRWRDVARNFLRK(Decanyl)-NH2] (H-RSRWRDVARNFLRK(Decanoyl)-NH2) | 1 (≈ 0.497 µM) | 4 (≈ 1.99 µM) | 16 (≈ 7.95 µM) | 4 (≈ 1.99 µM) | 16 | 8 (≈ 3.97 µM) | 64
CCCCCCCCCCCC(=O)NCCCC[C@H](NC(=O)[C@H](CCCNC(=N)N)NC(=O)[C@H](CC(C)C)NC(=O)[C@H](Cc1ccccc1)NC(=O)[C@H](CC(N)=O)NC(=O)[C@H](CCCNC(=N)N)NC(=O)[C@H](C)NC(=O)[C@@H](NC(=O)[C@H](CC(=O)O)NC(=O)[C@H](CCCNC(=N)N)NC(=O)[C@H](Cc1c[nH]c2ccccc12)NC(=O)[C@H](CCCNC(=N)N)NC(=O)[C@H](CO)NC(=O)[C@@H](N)CCCNC(=N)N)C(C)C)C(N)=O [Peptide 181, H2N-RSRWRDVARNFLRK(Lauryl)-NH2] (H-RSRWRDVARNFLRK(Lauroyl)-NH2) | 1 (≈ 0.49 µM) | 4 (≈ 1.96 µM) | 16 (≈ 7.84 µM) | 4 (≈ 1.96 µM) | 8 | 4 (≈ 1.96 µM) | 64
CCCCCCCCCC(=O)NCCCC[C@H](NC(=O)[C@H](CCCNC(=N)N)NC(=O)[C@H](CCSC)NC(=O)[C@H](Cc1ccccc1)NC(=O)[C@H](CC(N)=O)NC(=O)[C@H](CCCNC(=N)N)NC(=O)[C@H](C)NC(=O)[C@@H](NC(=O)[C@H](CC(=O)O)NC(=O)[C@H](CCCNC(=N)N)NC(=O)[C@H](Cc1c[nH]c2ccccc12)NC(=O)[C@H](CCCNC(=N)N)NC(=O)[C@H](CO)NC(=O)[C@@H](N)CCCNC(=N)N)C(C)C)C(N)=O [Peptide 185, H2N-RSRWRDVARNFMRK(Decanyl)-NH2] (H-RSRWRDVARNFMRK(Decanoyl)-NH2) | 1 (≈ 0.492 µM) | 16 (≈ 7.88 µM) | 16 (≈ 7.88 µM) | 8 (≈ 3.94 µM) | 32 | 4 (≈ 1.97 µM) | 32
CCCCCCCCCCCC(=O)NCCCC[C@H](NC(=O)[C@H](CCCNC(=N)N)NC(=O)[C@H](CCSC)NC(=O)[C@H](Cc1ccccc1)NC(=O)[C@H](CC(N)=O)NC(=O)[C@H](CCCNC(=N)N)NC(=O)[C@H](C)NC(=O)[C@@H](NC(=O)[C@H](CC(=O)O)NC(=O)[C@H](CCCNC(=N)N)NC(=O)[C@H](Cc1c[nH]c2ccccc12)NC(=O)[C@H](CCCNC(=N)N)NC(=O)[C@H](CO)NC(=O)[C@@H](N)CCCNC(=N)N)C(C)C)C(N)=O [Peptide 186, H2N-RSRWRDVARNFMRK(Lauryl)-NH2] (H-RSRWRDVARNFMRK(Lauroyl)-NH2) | 1 (≈ 0.486 µM) | 4 (≈ 1.94 µM) | 16 (≈ 7.77 µM) | 4 (≈ 1.94 µM) | 16 | 4 (≈ 1.94 µM) | 16
CCCCCCCC(=O)NCCCC[C@@H](NC(=O)[C@@H](CCCNC(=N)N)NC(=O)[C@@H](CC(C)C)NC(=O)[C@@H](Cc1ccccc1)NC(=O)[C@@H](CC(N)=O)NC(=O)[C@@H](CCCNC(=N)N)NC(=O)[C@@H](C)NC(=O)[C@H](NC(=O)[C@@H](CC(=O)O)NC(=O)[C@@H](CCCNC(=N)N)NC(=O)[C@@H](Cc1c[nH]c2ccccc12)NC(=O)[C@@H](CCCNC(=N)N)NC(=O)[C@@H](CO)NC(=O)[C@H](N)CCCNC(=N)N)C(C)C)C(N)=O [Peptide 193, H2N-rsrwrdvarnflrk(Octanyl)-NH2] (H-[dR][dS][dR][dW][dR][dD][dV][dA][dR][dN][dF][dL][dR][dK](Octanoyl)-NH2) | 2 (≈ 1.01 µM) | 16 (≈ 8.06 µM) | 16 (≈ 8.06 µM) | 8 (≈ 4.03 µM) | 32 | 16 (≈ 8.06 µM) | 8
CCCCCCCCCC(=O)NCCCC[C@@H](NC(=O)[C@@H](CCCNC(=N)N)NC(=O)[C@@H](CC(C)C)NC(=O)[C@@H](Cc1ccccc1)NC(=O)[C@@H](CC(N)=O)NC(=O)[C@@H](CCCNC(=N)N)NC(=O)[C@@H](C)NC(=O)[C@H](NC(=O)[C@@H](CC(=O)O)NC(=O)[C@@H](CCCNC(=N)N)NC(=O)[C@@H](Cc1c[nH]c2ccccc12)NC(=O)[C@@H](CCCNC(=N)N)NC(=O)[C@@H](CO)NC(=O)[C@H](N)CCCNC(=N)N)C(C)C)C(N)=O [Peptide 194, H2N-rsrwrdvarnflrk(Decanyl)-NH2] (H-[dR][dS][dR][dW][dR][dD][dV][dA][dR][dN][dF][dL][dR][dK](Decanoyl)-NH2) | 1 (≈ 0.497 µM) | 2 (≈ 0.993 µM) | 4 (≈ 1.99 µM) | 2 (≈ 0.993 µM) | 16 | 2 (≈ 0.993 µM) | 4
CCCCCCCCCCCC(=O)NCCCC[C@@H](NC(=O)[C@@H](CCCNC(=N)N)NC(=O)[C@@H](CC(C)C)NC(=O)[C@@H](Cc1ccccc1)NC(=O)[C@@H](CC(N)=O)NC(=O)[C@@H](CCCNC(=N)N)NC(=O)[C@@H](C)NC(=O)[C@H](NC(=O)[C@@H](CC(=O)O)NC(=O)[C@@H](CCCNC(=N)N)NC(=O)[C@@H](Cc1c[nH]c2ccccc12)NC(=O)[C@@H](CCCNC(=N)N)NC(=O)[C@@H](CO)NC(=O)[C@H](N)CCCNC(=N)N)C(C)C)C(N)=O [Peptide 195, H2N-rsrwrdvarnflrk(Lauryl)-NH2] (H-[dR][dS][dR][dW][dR][dD][dV][dA][dR][dN][dF][dL][dR][dK](Lauroyl)-NH2) | 1 (≈ 0.49 µM) | 4 (≈ 1.96 µM) | 4 (≈ 1.96 µM) | 4 (≈ 1.96 µM) | 8 | 2 (≈ 0.98 µM) | 8
CCCCCCCC(=O)NCCCC[C@@H](NC(=O)[C@@H](CCCNC(=N)N)NC(=O)[C@@H](CCSC)NC(=O)[C@@H](Cc1ccccc1)NC(=O)[C@@H](CC(N)=O)NC(=O)[C@@H](CCCNC(=N)N)NC(=O)[C@@H](C)NC(=O)[C@H](NC(=O)[C@@H](CC(=O)O)NC(=O)[C@@H](CCCNC(=N)N)NC(=O)[C@@H](Cc1c[nH]c2ccccc12)NC(=O)[C@@H](CCCNC(=N)N)NC(=O)[C@@H](CO)NC(=O)[C@H](N)CCCNC(=N)N)C(C)C)C(N)=O [Peptide 198, H2N-rsrwrdvarnfmrk(Octanyl)-NH2] (H-[dR][dS][dR][dW][dR][dD][dV][dA][dR][dN][dF][dM][dR][dK](Octanoyl)-NH2) | 4 (≈ 2 µM) | 64 (≈ 31.9 µM) | 32 (≈ 16 µM) | 16 (≈ 7.99 µM) | 64 | 16 (≈ 7.99 µM) | 16
CCCCCCCCCC(=O)NCCCC[C@@H](NC(=O)[C@@H](CCCNC(=N)N)NC(=O)[C@@H](CCSC)NC(=O)[C@@H](Cc1ccccc1)NC(=O)[C@@H](CC(N)=O)NC(=O)[C@@H](CCCNC(=N)N)NC(=O)[C@@H](C)NC(=O)[C@H](NC(=O)[C@@H](CC(=O)O)NC(=O)[C@@H](CCCNC(=N)N)NC(=O)[C@@H](Cc1c[nH]c2ccccc12)NC(=O)[C@@H](CCCNC(=N)N)NC(=O)[C@@H](CO)NC(=O)[C@H](N)CCCNC(=N)N)C(C)C)C(N)=O [Peptide 199, H2N-rsrwrdvarnfmrk(Decanyl)-NH2] (H-[dR][dS][dR][dW][dR][dD][dV][dA][dR][dN][dF][dM][dR][dK](Decanoyl)-NH2) | 1 (≈ 0.492 µM) | 4 (≈ 1.97 µM) | 8 (≈ 3.94 µM) | 4 (≈ 1.97 µM) | 32 | 2 (≈ 0.985 µM) | 8
